Data taken from patent publication US20250332264A1, “GhR-BINDING PEPTIDE AND COMPOSITION COMPRISING SAME” (priority 2021, published 2025).
Starred links: 1 amine or outer side, 2 acyl side, 3 side chain; linkers in the order of their positions; H or OH if unused. Positions of bridges follow the written chain, without caps; N, C: chain ends. Non-standard residues stand in square brackets, D forms with d. Residues, ends and D or L forms follow the SMILES beside them. Groups on a side chain read outwards from the residue. *: point of attachment. X13 = NC(=O)[C@H](CCCCN*)NC(=O)COCCOCCNC(=O)COCCOCCNC(=O)CC[C@H](NC(=O)CC[C@H](NC(=O)CCCCCCCCCCCCC(=O)O)C(=O)O)C(=O)O; X3 = NC(=O)[C@H](CCCCN*)NC(=O)CC[C@H](NC(=O)CC[C@H](NC(=O)CCCCCCCCCCCCCCC(=O)O)C(=O)O)C(=O)O; X10 = NC(=O)[C@H](CCCCN*)NC(=O)CC[C@H](NC(=O)CC[C@H](NC(=O)CCCc1ccc(I)cc1)C(=O)O)C(=O)O; Trp(1-CH2CO) = O=C([C@H](Cc1cn(CC(=O)[*:3])c2ccccc12)N[*:1])[*:2]; Trp(5-OMe) = COc1ccc2[nH]cc(C[C@H](N)C(=O)O)c2c1; Butanoyl(4-(4-I-phenyl)) = O=C(CCCc1ccc(I)cc1)*; Trp(5-OH) = N[C@@H](Cc1c[nH]c2ccc(O)cc12)C(=O)O; Phe(4-COOH) = N[C@@H](Cc1ccc(C(=O)O)cc1)C(=O)O; Trp(7-aza) = N[C@@H](Cc1c[nH]c2ncccc12)C(=O)O; Piperazinyl(4-CH2COOH) = O=C(O)CN1CCN(*)CC1; X7 = O=C(O)CN1CCC(N[*:1])(C(=O)[*:2])CC1; γGlu = O=C(O)[C@H](CCC(=O)[*:2])N[*:1]; Aad = N[C@@H](CCCC(=O)O)C(=O)O; Ahp(2) = CCCCC[C@H](N)C(=O)O; NMeK = CN[C@@H](CCCCN)C(=O)O; Aib = CC(C)(N)C(=O)O; CO = O=C([*:1])[*:2]

Target: T1, Recombinant human GhR-Fc protein (Homo sapiens, UniProt P10912)
T1 construct: purchased R&D Systems
Experiment: Binding activity of hGhR binding peptide by surface plasmon resonance (SPR), Biacore T200, single-cycle kinetics
Conditions: human GhR-Fc immobilized on CM5 chip, KD calculated from ka and kd
Description: SPR assay was performed using Biacore T200 (cytiva: Former GE Healthcare). After the equilibration of Series S Sensor Chip CM5 (produced by cytiva: Former GE Healthcare) with Running Buffer (HBS-EP with 1% (v/v) DMSO), an EDC/NHS mixture was injected at a flow rate of 10 μL/min for 7 minutes to thereby activate the functional groups on sensor chip. Recombinant human GhR-Fc protein (R&D Systems) in 10 mM Acetate (pH4.0) was injected immobilized to at a flow rate of 5 μL/min. It took 7 minutes to immobilize the GhR on the substrate surfaces of the sensor chip. Then Ethanolamine was injected at a flow rate of 10 μL/min for 7 minutes. 1M Ethanolamine (aq.) was injected at a flow rate of 10 μL/min for 420 seconds for capping.
Using these Peptide Samples, kinetics of peptides against human GhR-Fc protein were measured. The method adopted for sample measurement was a single-cycle kinetics method. The analysis was conducted using the evaluation software provided with Biacore T200. A DMSO correction curve obtained by solvent correction measurements was applied for the analysis. Kinetics fitting was done on the difference data obtained by subtracting the baseline data from sample measurement data. KD values were calculated based on the association rate constant (ka) and dissociation rate constant (kd).
Furthermore, “obs. m/z [M+2H]2+” indicates the ESI-MS(+) observed value. Unless otherwise specified, this is bivalent ([M+2H]^2+).

T1 sequence (P10912 with tags, fused parts or gaps limits assumed): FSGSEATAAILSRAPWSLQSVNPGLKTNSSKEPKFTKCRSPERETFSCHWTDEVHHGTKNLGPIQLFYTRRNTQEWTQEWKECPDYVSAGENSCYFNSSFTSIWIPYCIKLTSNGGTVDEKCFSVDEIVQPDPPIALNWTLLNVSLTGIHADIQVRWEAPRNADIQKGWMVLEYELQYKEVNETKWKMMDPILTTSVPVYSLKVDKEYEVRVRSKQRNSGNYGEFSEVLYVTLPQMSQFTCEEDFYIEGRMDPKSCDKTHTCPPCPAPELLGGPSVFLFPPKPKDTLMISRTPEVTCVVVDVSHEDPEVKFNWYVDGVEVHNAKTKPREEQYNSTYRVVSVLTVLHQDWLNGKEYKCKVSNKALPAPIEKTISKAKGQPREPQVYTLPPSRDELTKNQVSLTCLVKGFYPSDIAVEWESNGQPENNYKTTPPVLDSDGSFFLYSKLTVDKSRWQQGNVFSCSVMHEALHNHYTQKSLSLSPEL

SMILES | Kd [nM]
CC(C)[C@@H]1NC(=O)[C@H](C(C)C)NC(=O)[C@@H]2CCCCNC(=O)Cn3cc(c4ccccc43)C[C@H](NC(=O)[C@H](CC(N)=O)NC(=O)[C@H](CO)NC1=O)C(=O)N[C@@H](Cc1ccc(C(=O)O)cc1)C(=O)N[C@@H](CCCCN)C(=O)N[C@@H](Cc1c[nH]c3ccc(O)cc13)C(=O)NC(C)(C)C(=O)N[C@@H](C(C)C)C(=O)N[C@H](C(=O)NCCCC[C@H](NC(=O)COCCOCCNC(=O)COCCOCCNC(=O)CC[C@H](NC(=O)CC[C@H](NC(=O)CCCCCCCCCCCCC(=O)O)C(=O)O)C(=O)O)C(N)=O)CSCC(=O)N[C@@H](Cc1ccc(C(=O)O)cc1)C(=O)N2C [Compound 62] ({CH2CO}-[Phe(4-COOH)][NMeK]VVSN[Trp(1-CH2CO)][Phe(4-COOH)]K[Trp(5-OH)][Aib]VC-X13; lactam 2-7; thioether N-13) | 3.88
COc1ccc2[nH]cc(C[C@@H]3NC(=O)[C@H](CC(N)=O)NC(=O)[C@H](CO)NC(=O)[C@H](C(C)C)NC(=O)[C@H](C(C)C)NC(=O)[C@H](CCCCNC(=O)CC[C@H](NC(=O)CCCc4ccc(I)cc4)C(=O)O)N(C)C(=O)[C@H](Cc4ccc(O)cc4)NC(=O)CSC[C@@H](C(=O)NCC(=O)N4CCC[C@H]4C(=O)N[C@H](CO)C(=O)N[C@H](CO)C(=O)N[C@H](CO)C(N)=O)NC(=O)[C@H](C(C)C)NC(=O)C(C)(C)NC(=O)[C@H](Cc4c[nH]c5ccc(O)cc45)NC(=O)[C@H](CCCCNC(=O)N4CCN(CC(=O)O)CC4)NC(=O)[C@H](Cc4ccc(C(=O)O)cc4)NC3=O)c2c1 [Compound 48] ({CH2CO}-Y[NMeK]([γGlu-Butanoyl(4-(4-I-phenyl))])VVSN[Trp(5-OMe)][Phe(4-COOH)]K([CO-Piperazinyl(4-CH2COOH)])[Trp(5-OH)][Aib]VCGP[dS][dS][dS]-NH2; thioether N-13) | 4.35
CCCCC[C@@H]1NC(=O)[C@H](Cc2ccc(C(=O)O)cc2)NC(=O)[C@@H]2Cc3cn(c4ccccc34)CC(=O)NCCCC[C@@H](C(=O)N[C@@H](C(C)C)C(=O)N[C@@H](C(C)C)C(=O)N[C@@H](CO)C(=O)N[C@@H](CC(N)=O)C(=O)N2)N(C)C(=O)[C@H](Cc2ccc(C(=O)O)cc2)NC(=O)CSC[C@@H](C(=O)NCCCC[C@H](NC(=O)CC[C@H](NC(=O)CC[C@H](NC(=O)CCCc2ccc(I)cc2)C(=O)O)C(=O)O)C(N)=O)NC(=O)[C@H](C(C)C)NC(=O)C(C)(C)NC(=O)[C@H](Cc2c[nH]c3ccc(O)cc23)NC1=O [Compound 6] ({CH2CO}-[Phe(4-COOH)][NMeK]VVSN[Trp(1-CH2CO)][Phe(4-COOH)][Ahp(2)][Trp(5-OH)][Aib]VC-X10; lactam 2-7; thioether N-13) | 1.82
CC(C)[C@@H]1NC(=O)[C@H](C(C)C)NC(=O)[C@@H]2CCCCNC(=O)Cn3cc(c4ccccc43)C[C@H](NC(=O)[C@H](CC(N)=O)NC(=O)[C@H](CO)NC1=O)C(=O)N[C@@H](Cc1ccc(C(=O)O)cc1)C(=O)N[C@@H](CCCCN)C(=O)N[C@@H](Cc1c[nH]c3ccc(O)cc13)C(=O)NC(C)(C)C(=O)N[C@@H](C(C)C)C(=O)N[C@H](C(=O)NCC(=O)N1CCC[C@H]1C(=O)N[C@H](CO)C(=O)N[C@H](CO)C(=O)N[C@H](CO)C(=O)NCCCC[C@H](NC(=O)CC[C@H](NC(=O)CC[C@H](NC(=O)CCCc1ccc(I)cc1)C(=O)O)C(=O)O)C(N)=O)CSCC(=O)N[C@@H](Cc1ccc(C(=O)O)cc1)C(=O)N2C [Compound 14] ({CH2CO}-[Phe(4-COOH)][NMeK]VVSN[Trp(1-CH2CO)][Phe(4-COOH)]K[Trp(5-OH)][Aib]VCGP[dS][dS][dS]-X10; lactam 2-7; thioether N-13) | 1.88
CC(C)[C@@H]1NC(=O)[C@H](C(C)C)NC(=O)[C@H](CCCCNC(=O)CC[C@H](NC(=O)CCCc2ccc(I)cc2)C(=O)O)N(C)C(=O)[C@H](Cc2ccc(O)cc2)NC(=O)CSC[C@@H](C(N)=O)NC(=O)[C@H](C(C)C)NC(=O)C(C)(C)NC(=O)[C@H](Cc2c[nH]c3ccc(O)cc23)NC(=O)[C@H](CCCCN)NC(=O)[C@H](Cc2ccc(C(=O)O)cc2)NC(=O)[C@H](Cc2c[nH]c3ncccc23)NC(=O)[C@H](CC(N)=O)NC(=O)[C@H](CO)NC1=O [Compound 43] ({CH2CO}-Y[NMeK]([γGlu-Butanoyl(4-(4-I-phenyl))])VVSN[Trp(7-aza)][Phe(4-COOH)]K[Trp(5-OH)][Aib]VC-NH2; thioether N-13) | 3.95
CC(C)[C@@H]1NC(=O)[C@H](C(C)C)NC(=O)[C@@H]2CCCCNC(=O)Cn3cc(c4ccccc43)C[C@H](NC(=O)[C@H](CC(N)=O)NC(=O)[C@H](CO)NC1=O)C(=O)N[C@@H](Cc1ccc(C(=O)O)cc1)C(=O)N[C@@H](CCCCN)C(=O)N[C@@H](Cc1c[nH]c3ccc(O)cc13)C(=O)NC(C)(C)C(=O)N[C@@H](C(C)C)C(=O)N[C@H](C(=O)NCCCC[C@H](NC(=O)CC[C@H](NC(=O)CC[C@H](NC(=O)CCCc1ccc(I)cc1)C(=O)O)C(=O)O)C(N)=O)CSCC(=O)N[C@@H](Cc1ccc(C(=O)O)cc1)C(=O)N2C [Compound 9] ({CH2CO}-[Phe(4-COOH)][NMeK]VVSN[Trp(1-CH2CO)][Phe(4-COOH)]K[Trp(5-OH)][Aib]VC-X10; lactam 2-7; thioether N-13) | 1.46
CC(C)[C@@H]1NC(=O)[C@H](C(C)C)NC(=O)[C@@H]2CCCCNC(=O)Cn3cc(c4ccccc43)C[C@H](NC(=O)[C@H](CC(N)=O)NC(=O)[C@H](CO)NC1=O)C(=O)N[C@@H](Cc1ccc(O)cc1)C(=O)N[C@@H](CCCCNC(=O)N1CCN(CC(=O)O)CC1)C(=O)N[C@@H](Cc1c[nH]c3ccc(O)cc13)C(=O)NC(C)(C)C(=O)N[C@@H](C(C)C)C(=O)N[C@H](C(=O)NCC(=O)N1CCC[C@H]1C(=O)N[C@H](CO)C(=O)N[C@H](CO)C(=O)N[C@H](CO)C(=O)NCCCC[C@H](NC(=O)CC[C@H](NC(=O)CC[C@H](NC(=O)CCCCCCCCCCCCCCC(=O)O)C(=O)O)C(=O)O)C(N)=O)CSCC(=O)N[C@@H](Cc1ccc(O)cc1)C(=O)N2C [Compound 28] ({CH2CO}-Y[NMeK]VVSN[Trp(1-CH2CO)]YK([CO-Piperazinyl(4-CH2COOH)])[Trp(5-OH)][Aib]VCGP[dS][dS][dS]-X3; lactam 2-7; thioether N-13) | 2.71
CC(C)[C@@H]1NC(=O)[C@H](C(C)C)NC(=O)[C@@H]2CCCCNC(=O)Cn3cc(c4ccccc43)C[C@H](NC(=O)[C@H](CC(N)=O)NC(=O)[C@H](CO)NC1=O)C(=O)N[C@@H](Cc1ccc(C(=O)O)cc1)C(=O)N[C@@H](CCCC(N)=O)C(=O)N[C@@H](Cc1c[nH]c3ccc(O)cc13)C(=O)NC(C)(C)C(=O)N[C@@H](C(C)C)C(=O)N[C@H](C(=O)NCCCC[C@H](NC(=O)CC[C@H](NC(=O)CC[C@H](NC(=O)CCCc1ccc(I)cc1)C(=O)O)C(=O)O)C(N)=O)CSCC(=O)N[C@@H](Cc1ccc(C(=O)O)cc1)C(=O)N2C [Compound 5] ({CH2CO}-[Phe(4-COOH)][NMeK]VVSN[Trp(1-CH2CO)][Phe(4-COOH)][Aad](NH2)[Trp(5-OH)][Aib]VC-X10; lactam 2-7; thioether N-13) | 3.07
CC(C)[C@@H]1NC(=O)[C@H](C(C)C)NC(=O)[C@@H]2CCCCNC(=O)Cn3cc(c4ccccc43)C[C@H](NC(=O)[C@H](CC(N)=O)NC(=O)[C@H](CO)NC1=O)C(=O)N[C@@H](Cc1ccc(C(=O)O)cc1)C(=O)N[C@@H](CCCCN)C(=O)N[C@@H](Cc1c[nH]c3ccc(O)cc13)C(=O)NC1(CCN(CC(=O)O)CC1)C(=O)N[C@@H](C(C)C)C(=O)N[C@H](C(=O)NCCCC[C@H](NC(=O)CC[C@H](NC(=O)CC[C@H](NC(=O)CCCc1ccc(I)cc1)C(=O)O)C(=O)O)C(N)=O)CSCC(=O)N[C@@H](Cc1ccc(C(=O)O)cc1)C(=O)N2C [Compound 8] ({CH2CO}-[Phe(4-COOH)][NMeK]VVSN[Trp(1-CH2CO)][Phe(4-COOH)]K[Trp(5-OH)][X7]VC-X10; lactam 2-7; thioether N-13) | 2.08
CC(C)[C@@H]1NC(=O)[C@H](C(C)C)NC(=O)[C@@H]2CCCCNC(=O)Cn3cc(c4ccccc43)C[C@H](NC(=O)[C@H](CC(N)=O)NC(=O)[C@H](CO)NC1=O)C(=O)N[C@@H](Cc1ccc(C(=O)O)cc1)C(=O)N[C@@H](CCCCNC(=O)N1CCN(CC(=O)O)CC1)C(=O)N[C@@H](Cc1c[nH]c3ccc(O)cc13)C(=O)NC(C)(C)C(=O)N[C@@H](C(C)C)C(=O)N[C@H](C(=O)NCCCC[C@H](NC(=O)CC[C@H](NC(=O)CC[C@H](NC(=O)CCCCCCCCCCCCCCC(=O)O)C(=O)O)C(=O)O)C(N)=O)CSCC(=O)N[C@@H](Cc1ccc(O)cc1)C(=O)N2C [Compound 22] ({CH2CO}-Y[NMeK]VVSN[Trp(1-CH2CO)][Phe(4-COOH)]K([CO-Piperazinyl(4-CH2COOH)])[Trp(5-OH)][Aib]VC-X3; lactam 2-7; thioether N-13) | 11.2
COc1ccc2[nH]cc(C[C@@H]3NC(=O)[C@H](CC(N)=O)NC(=O)[C@H](CO)NC(=O)[C@H](C(C)C)NC(=O)[C@H](C(C)C)NC(=O)[C@H](CCCCNC(=O)CC[C@H](NC(=O)CCCc4ccc(I)cc4)C(=O)O)N(C)C(=O)[C@H](Cc4ccc(O)cc4)NC(=O)CSC[C@@H](C(=O)NCC(=O)N4CCC[C@H]4C(=O)N[C@H](CO)C(=O)N[C@H](CO)C(=O)N[C@H](CO)C(N)=O)NC(=O)[C@H](C(C)C)NC(=O)C(C)(C)NC(=O)[C@H](Cc4c[nH]c5ccc(O)cc45)NC(=O)[C@H](CCCCN)NC(=O)[C@H](Cc4ccc(O)cc4)NC3=O)c2c1 [Compound 46] ({CH2CO}-Y[NMeK]([γGlu-Butanoyl(4-(4-I-phenyl))])VVSN[Trp(5-OMe)]YK[Trp(5-OH)][Aib]VCGP[dS][dS][dS]-NH2; thioether N-13) | 1.07
